In general, MIC refers to the lowest concentration found to suppress growth. As usually defined, the IC50 is the concentration at which inhibition is half-maximal.

Values after ≈ are worked out from the molar mass of the structure shown. Where two headings read alike, the source gives them in different places.

The results in this text go back to patent US20100029604A1, “ANTIBACTERIAL COMBINATION AND ITS USE” (priority 2007, published 2010).

The test system of one experiment is E. coli TEM-2. It is filed as cell-based. The settings on record: TEM-2, class A, inhibitor constant 4 μg/mL.
The next experiment relates to K. pneumoniae SHV-18. Kind of experiment: Synergy MIC, inhibitor at 4 μg/mL (Example 4). It is filed as cell-based. The settings on record: SHV-18, class A, inhibitor constant 4 μg/mL.
The test system of experiment [1] is E. coli SHV-3. Kind of experiment: Synergy MIC, inhibitor at 4 μg/mL (Example 4). Particulars: SHV-3, class A, inhibitor constant 4 μg/mL. It is filed as cell-based.
In the next experiment the test system is E. cloacae AmpC. Description: Synergy MIC, inhibitor at 4 μg/mL (Example 4). It is filed as cell-based, Enterobacter Cloacae. Particulars: class C, inhibitor constant 4 μg/mL. The protocol:
(§1) The in vitro activities of the antibiotics were determined by the broth microdilution method and agar dilution technique as recommended by CLSI guidelines. The MIC experiments were performed in duplicate in 96-well microtiter plates using MHB. Serial twofold dilutions of each antibiotic either alone or in combination with a constant amount (4 μg/mL) of a β-lactamase inhibitor were prepared in MHBII broth. A sterile pipette tip was used to mix the contents of each well (one tip was used going from the low to the high concentration in the same column). The bacterial suspension with final inoculum 10^5 CFU/mL was transferred to the test medium containing the antibacterial substances by a multipoint inoculator (Dynatech, Chantilly, Va., USA). The plates were then incubated at 35° C. for 24 h.
(§2) Following procedures identical to those described in Example 3, representative compound of Formula (I) was tested for its ability to enhance antibiotic efficacy against Class C β-lactamase positive bacterial strains that are highly resistant to β-lactam antibiotics. Class C enzymes included AmpC β-lactamases of Enterobacter Cloacae and Citrobacter freundii.

The subject of a further experiment is E. coli SHV-5. Description: Synergy MIC, inhibitor at 4 μg/mL (Example 4). In kind it is cell-based. The settings on record: SHV-5, class A, inhibitor constant 4 μg/mL.
Experiment [2] deals with E. coli TEM-1. It is filed as cell-based. The settings on record: TEM-1, class A, inhibitor constant 4 μg/mL.
For another experiment, the system named is C. freundii AmpC. Description: Synergy MIC, inhibitor at 4 μg/mL (Example 4). The settings on record: class C, inhibitor constant 4 μg/mL. It is filed as cell-based, Citrobacter freundii. The protocol:
as §1, §2

For experiment [3], the system named is 55 laboratory strains producing characterized β-lactamases. Kind of experiment: MIC, whole panel of Example 5 (Tables 5-7). It is filed as cell-based. Particulars: LK-157 as single agent against the tested strains. The protocol: The MIC experiments were performed in duplicate in 96-well microtiter plates using CAMHB. Serial twofold dilutions of each antibiotic either alone or in combination with constant concentration ratio of a β-lactamase inhibitor (2:1) were prepared in CAMHB. The bacterial suspension with final inoculum 10^5 CFU/mL was transferred to the test medium containing the antibacterial substances. In each well of a 96-well microtiter plate was combined 50 μL of bacterial inoculum, 50 μL of antibiotic dilutions (or media for determination of the MIC of the antibiotic in the absence of test compound). Each plate included 4 wells with no bacterial inoculum (negative control) and 4 wells with no test compound and no antibiotic (positive control). The plates were incubated at 35° C. for 24 h. Purity check and colony counts on each inoculum suspension was performed to ensure that the final inoculum concentration routinely obtained closely approximates 5×10^5 CFU/mL. In addition the assay is routinely monitored by testing standard antibiotics and ensuring that MIC values are within the recommended ranges for the respective strains.
This test permits comparisons to be made between bacterial growth in the presence of antibiotic alone and bacterial growth in the presence of both an antibiotic and a novel (test) compound.

For a further experiment, the system named is M. catarrhalis BRO-1. Kind of experiment: Synergy MIC, inhibitor at 4 μg/mL (Example 3). In kind it is cell-based, Moraxella catarrhalis. Particulars: BRO-1 β-lactamases of M. catarrhalis. As to the method: (§3) Stock solutions of the test compounds and control antibiotics were prepared in distilled water according to the NCCLS guidelines [Methods for dilution antimicrobial tests for bacteria that grow aerobically. NCCLS document M7-A5; 2000; vol. 19. National Committee for Clinical Laboratory Standards, Villanova, Pa.]. All drug weights were corrected for salt forms and refer to the pure drug substance.
(§4) All tested strains and Clinical isolates were either purchased from the American Type Culture Collection (ATCC), or from the in-house company culture collection.
(§5) Stock cultures were prepared from broth cultures grown at 35° C. for 18-22 h without agitation and subsequent addition of 5% DMSO (v/v, final concentration) as cryoprotectant and stored frozen in liquid nitrogen. Mueller-Hinton II broth (MHBII) (BBL Cockeysville, Md.) was used for the testing procedure.
as §1
(§6) Representative compound of Formula (I) was evaluated against the serine-based Class A β-lactamases including TEM-type, SHV-type extended spectrum β-lactamases (ESBL) and various non-ESBL enzymes of enterobacteriaceae as well as BRO-type enzymes of Moraxella catarrhalis and penicillinases of Staphylococcus aureus.

Another experiment deals with TEM-1 (Escherichia coli, UniProt P62593). Kind of experiment: IC50 determination, nitrocefin hydrolysis. Particulars: Class A β-lactamase, 10 min pre-incubation at 37° C. It is filed as biochemical, E. coli. The protocol:
(§7) A standard test for the production of βlactamase involves use of the chromogenic cephalosporin, nitrocefin.
(§8) Homogeneously purified Class A β-lactamases TEM-1 and SHV-1 from E. coli and Class C enzyme AmpC from Enterobacter Cloaca were employed in the assay.
(§9) Compounds were prepared as 50 mM stocks in DMSO and diluted with buffer P1 (50 mM phosphate, pH 7) to a final concentration of 10% DMSO. All further dilutions were done using P2 (P1 with 10% DMSO). Enzyme and compound dilutions were pre-incubated for 10 min at 37° C. and the reaction started with the addition of pre-warmed (37° C.) nitrocefin (reporter substrate) at a final concentration of […]. The change in absorption at 490 nm was followed at 37° C. for 10 min at 30 sec intervals in a SPECTRAMAX 384 PLUS microplate reader (Molecular Devices, Sunnyvale, Calif.) using 96-well plates. The initial rate was determined and IC50 values were calculated using non-linear regression and sigmoidal dose response analysis with the PRISM 4.0 software (Graphpad Software Inc., San Diego, Calif.). IC50 data is expressed as μM and was calculated from at least two independent experiments.

A further experiment deals with SHV-1 (Escherichia coli, UniProt P0AD63). Description: IC50 determination, nitrocefin hydrolysis. Particulars: Class A β-lactamase, 10 min pre-incubation at 37° C. In kind it is biochemical, E. coli. The protocol:
as §7, §8, §9

In another experiment the test system is S. aureus PC. Description: Synergy MIC, inhibitor at 4 μg/mL (Example 3). In kind it is cell-based, Staphylococcus aureus. Particulars: penicillinases (PC-type) of S. aureus (MSSA). As to the method: as §3, §4, §5, §1, §6
A further experiment concerns the target AmpC (Enterobacter cloacae, UniProt P05364). In kind it is biochemical, Enterobacter Cloaca. Particulars: Class C β-lactamase; 10 min pre-incubation at 37° C., nitrocefin. The protocol:
as §7, §8, §9

Experiment [4] relates to Class C β-lactamase (AmpC) producing strains. Description: Synergy MIC, Class C strains of Example 4. In kind it is cell-based. The settings on record: all combinations used. As to the method: as §1, §2
Experiment [5] has as its system E. coli SHV-3. Kind of experiment: Synergy MIC, inhibitor at 4 μg/mL (Example 3). It is filed as cell-based. The settings on record: β-lactamase SHV-3 (Table 3 r9), inhibitor constant 4 μg/mL. The protocol: as §3, §4, §5, §1, §6
Experiment [6] relates to C. freundii SHV-5. Description: Synergy MIC, inhibitor at 4 μg/mL (Example 3). It is filed as cell-based. Particulars: β-lactamase SHV-5 (Table 3 r10), inhibitor constant 4 μg/mL. The protocol: as §3, §4, §5, §1, §6
A further experiment concerns E. coli ESBL. Kind of experiment: Synergy MIC, inhibitor at 4 μg/mL (Example 3). It is filed as cell-based. Particulars: first listed (Table 3 r21), inhibitor constant 4 μg/mL. As to the method:
as §3, §4, §5, §1, §6

The test system of the next experiment is K. oxytoca ESBL. Kind of experiment: Synergy MIC, inhibitor at 4 μg/mL (Example 3). In kind it is cell-based. Particulars: ESBL (Table 3 r26), inhibitor constant 4 μg/mL. As to the method:
as §3, §4, §5, §1, §6

A further experiment concerns E. cloacae SHV-12. Kind of experiment: Synergy MIC, inhibitor at 4 μg/mL (Example 3). In kind it is cell-based. The settings on record: β-lactamase SHV-12 (Table 3 r11), inhibitor constant 4 μg/mL. The protocol: as §3, §4, §5, §1, §6
The subject of the next experiment is M. catarrhalis BRO-2. Kind of experiment: Synergy MIC, inhibitor at 4 μg/mL (Example 3). It is filed as cell-based, Moraxella catarrhalis. The settings on record: β-lactamase BRO-2 (Table 3 r18), inhibitor constant 4 μg/mL. As to the method:
as §3, §4, §5, §1, §6

Experiment [7] concerns E. coli TEM-1. In kind it is cell-based. The settings on record: β-lactamase TEM-1, first listed (Table 3 r14), inhibitor constant 4 μg/mL. As to the method:
as §3, §4, §5, §1, §6

Another experiment relates to E. coli TEM-3. It is filed as cell-based. Particulars: β-lactamase TEM-3 (Table 3 r16), inhibitor constant 4 μg/mL. The protocol:
as §3, §4, §5, §1, §6

Experiment [8] has as its system C. freundii SHV-5. Kind of experiment: Synergy MIC, inhibitor at 4 μg/mL (Example 4). It is filed as cell-based. The settings on record: SHV-5, class A, inhibitor constant 4 μg/mL.
Experiment [9] deals with Klebsiella pneumoniae ATCC 700603. Kind of experiment: MIC broth microdilution (Example 2). Particulars: Klebsiella pneumoniae ATCC 700603 producing SHV-18. (Dilution methods test growth across graded concentrations, often in twofold steps.)
The test system of experiment [10] is Klebsiella oxytoca ATCC 51983. Kind of experiment: MIC broth microdilution (Example 2). Particulars: ATCC51983.

Sequence of AmpC (P05364 21-381): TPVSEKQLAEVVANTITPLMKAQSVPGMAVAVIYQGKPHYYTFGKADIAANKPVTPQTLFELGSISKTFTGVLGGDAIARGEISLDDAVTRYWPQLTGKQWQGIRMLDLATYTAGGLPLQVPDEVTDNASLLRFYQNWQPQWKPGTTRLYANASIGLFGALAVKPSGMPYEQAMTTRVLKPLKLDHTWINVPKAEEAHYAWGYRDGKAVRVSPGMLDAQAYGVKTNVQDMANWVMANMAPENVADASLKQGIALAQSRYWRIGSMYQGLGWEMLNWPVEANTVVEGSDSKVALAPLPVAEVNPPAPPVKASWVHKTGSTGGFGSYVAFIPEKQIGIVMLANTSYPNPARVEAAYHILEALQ
Sequence of SHV-1 (P0AD63 22-286): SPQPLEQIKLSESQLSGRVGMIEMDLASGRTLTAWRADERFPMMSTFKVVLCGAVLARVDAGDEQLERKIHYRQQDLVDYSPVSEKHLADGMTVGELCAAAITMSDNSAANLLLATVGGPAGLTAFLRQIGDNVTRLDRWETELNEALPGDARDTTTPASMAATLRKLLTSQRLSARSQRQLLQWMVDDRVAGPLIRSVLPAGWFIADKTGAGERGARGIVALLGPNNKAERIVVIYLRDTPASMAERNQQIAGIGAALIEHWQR
Sequence of TEM-1 (P62593 24-286 limits assumed): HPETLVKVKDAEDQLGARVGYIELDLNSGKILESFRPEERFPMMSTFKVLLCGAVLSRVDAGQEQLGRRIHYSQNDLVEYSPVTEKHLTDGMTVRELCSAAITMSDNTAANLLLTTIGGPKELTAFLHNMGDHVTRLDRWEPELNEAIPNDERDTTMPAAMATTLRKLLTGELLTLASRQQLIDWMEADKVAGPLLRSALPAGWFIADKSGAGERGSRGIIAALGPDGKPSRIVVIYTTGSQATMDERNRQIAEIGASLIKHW

As for `C[C@H]1[C@H](NC(=O)/C(=N\OC(C)(C)C(=O)O)c2csc(N)n2)C(=O)N1S(=O)(=O)O` [Aztreonam, aztreonam], the MIC with E. coli TEM-2 is 0.1 µg/mL (≈ 0.23 µM); in the experiment with K. pneumoniae SHV-18, > 25.6 µg/mL; in the experiment on E. coli SHV-3 [1] it was 0.4 µg/mL; in the experiment with E. cloacae AmpC (first listed) it was 25.6 µg/mL; in the experiment on E. cloacae AmpC (second listed), > 25.6 µg/mL; with E. cloacae AmpC (third listed), 12.8 µg/mL. The MIC in the experiment with E. coli SHV-5 was > 25.6 µg/mL; in the experiment with E. coli TEM-1 [2] it was 12.8 µg/mL (≈ 29.4 µM); in the experiment on C. freundii AmpC it was > 25.6 µg/mL.
Regarding `CO/N=C(\C(=O)N[C@@H]1C(=O)N2C(C(=O)[O-])=C(C[n+]3cccc4c3CCC4)CS[C@H]12)c1csc(N)n1` [Cefpirome, cefpirome], the MIC entry in the experiment on E. coli TEM-2 is “≦0.025”; in the experiment with K. pneumoniae SHV-18, 0.8 µg/mL; with E. coli SHV-3 [1] it was 0.8 µg/mL; in the experiment on E. cloacae AmpC (first listed), 6.4 µg/mL; in the experiment with E. cloacae AmpC (second listed), 3.2 µg/mL; in the experiment on E. cloacae AmpC (third listed), 3.2 µg/mL. In addition, the MIC with E. coli SHV-5 is > 25.6 µg/mL; against E. coli TEM-1 [2], 25.6 µg/mL (≈ 49.7 µM); in the experiment on C. freundii AmpC, 1.6 µg/mL.
As for `C/C=C1/C(=O)N2C(C(=O)O)=C3[C@@H](OC)CCC[C@@H]3[C@H]12` [Compound 1a, (4S,8S,9R)-4-methoxy-10-((E)-ethylidene)-11-oxo-1-azatricyclo[7.2.0.0^3,8]undec-2-ene-2-carboxylic acid], in experiment [3], the “antibiotic activity per se” value is listed as “did not display antibiotic activity per se”. For the same compound, the “activity compared with other β-lactamase inhibitors” value in the experiment on M. catarrhalis BRO-1 and in the experiment with S. aureus PC was “more active than the other tested β-lactamase inhibitors” in each case. Also, the IC50 amounted to 55 nM against TEM-1, 151 nM against SHV-1 and 62 nM at AmpC. Moreover, the “activity compared with tazobactam” value in experiment [4] is reported as “superior to tazobactam”.
As for `CCN1CCN(C(=O)N[C@@H](C(=O)N[C@@H]2C(=O)N3[C@@H]2SC(C)(C)[C@@H]3C(=O)O)c2ccccc2)C(=O)C1=O` [PIP, piperacillin], the MIC was > 25.6 µg/mL with E. coli SHV-3 [5]; > 25.6 µg/mL in the experiment on C. freundii SHV-5 [6]; 0.8 µg/mL with E. coli ESBL; 3.2 µg/mL in the experiment on K. oxytoca ESBL; > 25.6 µg/mL in the experiment with E. cloacae SHV-12; 1.6 µg/mL with M. catarrhalis BRO-2. Besides, the MIC in the experiment with E. coli TEM-1 [7] and with E. coli TEM-3 was > 25.6 µg/mL in each case.
As to `CO/N=C(\C(=O)N[C@@H]1C(=O)N2C(C(=O)O)=C(CSc3nc(=O)c(=O)[nH]n3C)CS[C@H]12)c1csc(N)n1` [ceftriaxone], the MIC entry in the experiment on E. coli TEM-2 was “≦0.025”; in the experiment with K. pneumoniae SHV-18 it was 6.4 µg/mL; with E. coli SHV-3 [1], 3.2 µg/mL; with E. cloacae AmpC (first listed), > 25.6 µg/mL; in the experiment on E. cloacae AmpC (second listed) it was > 25.6 µg/mL; in the experiment with E. cloacae AmpC (third listed) it was > 25.6 µg/mL. In addition, the MIC was 25.6 µg/mL with C. freundii SHV-5 [8]; > 25.6 µg/mL in the experiment on E. coli SHV-5; > 25.6 µg/mL against E. coli TEM-1 [2]; 2 to 8 µg/mL (≈ 3.61 to 14.4 µM) in [10]; > 25.6 µg/mL in the experiment on C. freundii AmpC. Also, the “susceptibility of the strain to the antibiotic” value in experiment [9] was “susceptible”.
